# Measurements as given in US9708314B2, “Heterocyclic amide compound” (NISSAN CHEMICAL INDUSTRIES, LTD., priority 2013, dated 2017).
# Key:
# Type in all cases: in vivo
# Scirpus juncoides = experiment: Test Example 1: herbicidal activity, application before weed generation in submerged conditions; conditions: Application herbicide amount 320 g/ha; Seventeenth Table
# In short: (§1)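 Rating, on a six-step scale from almost no effect (0) to almost completely withered (5), was made three weeks after pre-emergence treatment. Treatment was surface application to flooded pots at g/ha rates, with plants kept at 25° C. to 30° C.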
# [1] = test system: Echinochloa oryzacola Vasing.; experiment: as above; conditions: Application herbicide amount 320 g/ha; Seventeenth Table
# In short: as §1
# Monochoria vaginalis = experiment: as above; conditions: Application herbicide amount 320 g/ha; Seventeenth Table
# In short: as §1
# [2] = test system: directly sowed Oryza sativa; experiment: Test Example 4: effect on crop by application to foliage (diluvial soil, plastic box); conditions: application to foliage, application herbicide amount 320 g/ha
# In short: (§2)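 Emulsion-formulated compound, diluted to a predetermined g/ha dose, applied by small sprayer to leaves and stems of 14-day-old seedlings grown in sterilized diluvial soil. Effect rated on 0–5 herbicidal-ratio scale three weeks on.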
# Triticum aestivum = experiment: as above; conditions: application to foliage, application herbicide amount 320 g/ha
# In short: as §2
# [3] = test system: Beta vulgaris ssp. vulgaris; experiment: as above; conditions: application to foliage, application herbicide amount 320 g/ha
# In short: as §2
# Glycine max = experiment: as above; conditions: application to foliage, application herbicide amount 320 g/ha
# In short: as §2
# Zea mays = experiment: as above; conditions: application to foliage, application herbicide amount 320 g/ha
# In short: as §2
# Brassica campestris L. = experiment: as above; conditions: application to foliage, application herbicide amount 320 g/ha
# In short: as §2
# Alopecurus myosuroides = experiment: Test Example 4: herbicidal effect by application to foliage (diluvial soil, plastic box); conditions: application to foliage, application herbicide amount 320 g/ha
# In short: as §2
# Digitaria ciliaris = experiment: as above; conditions: application to foliage, application herbicide amount 320 g/ha
# In short: as §2
# Veronica persica = experiment: as above; conditions: application to foliage, application herbicide amount 320 g/ha
# In short: as §2
# Lolium multiflorum Lam. = experiment: as above; conditions: application to foliage, application herbicide amount 320 g/ha
# In short: as §2
# Chenopodium album = experiment: as above; conditions: application to foliage, application herbicide amount 320 g/ha
# In short: as §2
# Stellaria media = experiment: as above; conditions: application to foliage, application herbicide amount 320 g/ha
# In short: as §2
# Avena fatua = experiment: as above; conditions: application to foliage, application herbicide amount 320 g/ha
# In short: as §2
# Apera spica-venti. = experiment: as above; conditions: application to foliage, application herbicide amount 320 g/ha
# In short: as §2
# Galium spurium = experiment: as above; conditions: application to foliage, application herbicide amount 320 g/ha
# In short: as §2
# Abutilon theophrasti = experiment: as above; conditions: application to foliage, application herbicide amount 320 g/ha
# In short: as §2
# Setaria viridis = experiment: as above; conditions: application to foliage, application herbicide amount 320 g/ha
# In short: as §2
# [4] = test system: Echinochloa crus-galli var. crus-galli; experiment: as above; conditions: application to foliage, application herbicide amount 320 g/ha
# In short: as §2
# Amaranthus retroflexus = experiment: as above; conditions: application to foliage, application herbicide amount 320 g/ha
# In short: as §2
# [5] = test system: transplanted Oryza sativa; experiment: Test Example 1: effect on crop, application before weed generation in submerged conditions; conditions: Application herbicide amount 320 g/ha; Seventeenth Table
# In short: as §1
SMILES,B: Scirpus juncoides (herbicidal effect grade) (Scirpus juncoides),A: Echinochloa oryzicola Vasing. (herbicidal effect grade) [1],C: Monochoria vaginalis (herbicidal effect grade) (Monochoria vaginalis),"b: effect on crop, directly sowed Oryza sativa [2]","e: effect on crop, Triticum aestivum (Triticum aestivum)","f: effect on crop, Beta vulgaris ssp. vulgaris [3]","d: effect on crop, Glycine max (Glycine max)","c: effect on crop, Zea mays (Zea mays)","g: effect on crop, Brassica campestris L. (Brassica campestris L.)",J: herbicidal effect on Alopecurus myosuroides (Alopecurus myosuroides),F: herbicidal effect on Digitaria ciliaris (Digitaria ciliaris),R: herbicidal effect on Veronica persica (Veronica persica),K: herbicidal effect on Lolium multiflorum Lam. (Lolium multiflorum Lam.),O: herbicidal effect on Chenopodium album (Chenopodium album),P: herbicidal effect on Stellaria media (Stellaria media),I: herbicidal effect on Avena fatua (Avena fatua),L: herbicidal effect on Apera spica-venti. (Apera spica-venti.),Q: herbicidal effect on Galium spurium (Galium spurium),M: herbicidal effect on Abutilon theophrasti (Abutilon theophrasti),G: herbicidal effect on Setaria viridis (Setaria viridis),also measured
COCCOCc1nnc2c(C(=O)Nc3nnnn3C)ccc(C(F)(F)F)n12 [2-014],5 (Herbicidal ratio of 90% or more (almost completely withered)),5 (Herbicidal ratio of 90% or more (almost completely withered)),5 (Herbicidal ratio of 90% or more (almost completely withered)),5 (Herbicidal ratio of 90% or more (almost completely withered)),4 (Herbicidal ratio of 70% or more and less than 90%),5 (Herbicidal ratio of 90% or more (almost completely withered)),4 (Herbicidal ratio of 70% or more and less than 90%),3 (Herbicidal ratio of 40% or more and less than 70%),4 (Herbicidal ratio of 70% or more and less than 90%),4 (Herbicidal ratio of 70% or more and less than 90%),5 (Herbicidal ratio of 90% or more (almost completely withered)),5 (Herbicidal ratio of 90% or more (almost completely withered)),4 (Herbicidal ratio of 70% or more and less than 90%),5 (Herbicidal ratio of 90% or more (almost completely withered)),5 (Herbicidal ratio of 90% or more (almost completely withered)),4 (Herbicidal ratio of 70% or more and less than 90%),4 (Herbicidal ratio of 70% or more and less than 90%),4 (Herbicidal ratio of 70% or more and less than 90%),5 (Herbicidal ratio of 90% or more (almost completely withered)),5 (Herbicidal ratio of 90% or more (almost completely withered)),H: herbicidal effect on Echinochloa crus-galli var. crus-galli [4]: 5 (Herbicidal ratio of 90% or more (almost completely withered)); N: herbicidal effect on Amaranthus retroflexus (Amaranthus retroflexus): 5 (Herbicidal ratio of 90% or more (almost completely withered)); a: transplanted Oryza sativa (effect on crop grade) [5]: 4 (Herbicidal ratio of 70% or more and less than 90%)
Cn1nnnc1NC(=O)c1ccc(C(F)(F)F)n2c(COCC(F)(F)F)nnc12 [2-015],5 (Herbicidal ratio of 90% or more (almost completely withered)),5 (Herbicidal ratio of 90% or more (almost completely withered)),5 (Herbicidal ratio of 90% or more (almost completely withered)),4 (Herbicidal ratio of 70% or more and less than 90%),2 (Herbicidal ratio of 20% or more and less than 40%),4 (Herbicidal ratio of 70% or more and less than 90%),2 (Herbicidal ratio of 20% or more and less than 40%),2 (Herbicidal ratio of 20% or more and less than 40%),3 (Herbicidal ratio of 40% or more and less than 70%),2 (Herbicidal ratio of 20% or more and less than 40%),5 (Herbicidal ratio of 90% or more (almost completely withered)),3 (Herbicidal ratio of 40% or more and less than 70%),2 (Herbicidal ratio of 20% or more and less than 40%),5 (Herbicidal ratio of 90% or more (almost completely withered)),4 (Herbicidal ratio of 70% or more and less than 90%),2 (Herbicidal ratio of 20% or more and less than 40%),2 (Herbicidal ratio of 20% or more and less than 40%),3 (Herbicidal ratio of 40% or more and less than 70%),5 (Herbicidal ratio of 90% or more (almost completely withered)),4 (Herbicidal ratio of 70% or more and less than 90%),H: herbicidal effect on Echinochloa crus-galli var. crus-galli [4]: 5 (Herbicidal ratio of 90% or more (almost completely withered)); N: herbicidal effect on Amaranthus retroflexus (Amaranthus retroflexus): 5 (Herbicidal ratio of 90% or more (almost completely withered)); a: transplanted Oryza sativa (effect on crop grade) [5]: 1 (Herbicidal ratio of 5% or more and less than 20%)
CCC(C)c1nnc2c(C(=O)Nc3nnnn3C)ccc(C(F)(F)F)n12 (centres unmarked) [2-016],5 (Herbicidal ratio of 90% or more (almost completely withered)),5 (Herbicidal ratio of 90% or more (almost completely withered)),5 (Herbicidal ratio of 90% or more (almost completely withered)),5 (Herbicidal ratio of 90% or more (almost completely withered)),4 (Herbicidal ratio of 70% or more and less than 90%),5 (Herbicidal ratio of 90% or more (almost completely withered)),4 (Herbicidal ratio of 70% or more and less than 90%),1 (Herbicidal ratio of 5% or more and less than 20%),4 (Herbicidal ratio of 70% or more and less than 90%),4 (Herbicidal ratio of 70% or more and less than 90%),5 (Herbicidal ratio of 90% or more (almost completely withered)),5 (Herbicidal ratio of 90% or more (almost completely withered)),4 (Herbicidal ratio of 70% or more and less than 90%),5 (Herbicidal ratio of 90% or more (almost completely withered)),5 (Herbicidal ratio of 90% or more (almost completely withered)),4 (Herbicidal ratio of 70% or more and less than 90%),4 (Herbicidal ratio of 70% or more and less than 90%),3 (Herbicidal ratio of 40% or more and less than 70%),5 (Herbicidal ratio of 90% or more (almost completely withered)),5 (Herbicidal ratio of 90% or more (almost completely withered)),H: herbicidal effect on Echinochloa crus-galli var. crus-galli [4]: 5 (Herbicidal ratio of 90% or more (almost completely withered)); N: herbicidal effect on Amaranthus retroflexus (Amaranthus retroflexus): 5 (Herbicidal ratio of 90% or more (almost completely withered)); a: transplanted Oryza sativa (effect on crop grade) [5]: 4 (Herbicidal ratio of 70% or more and less than 90%)
Cc1cc(-c2nnc3c(C(=O)Nc4nnnn4C)ccc(C(F)(F)F)n23)no1 [2-017],3 (Herbicidal ratio of 40% or more and less than 70%),5 (Herbicidal ratio of 90% or more (almost completely withered)),4 (Herbicidal ratio of 70% or more and less than 90%),5 (Herbicidal ratio of 90% or more (almost completely withered)),3 (Herbicidal ratio of 40% or more and less than 70%),5 (Herbicidal ratio of 90% or more (almost completely withered)),4 (Herbicidal ratio of 70% or more and less than 90%),1 (Herbicidal ratio of 5% or more and less than 20%),4 (Herbicidal ratio of 70% or more and less than 90%),3 (Herbicidal ratio of 40% or more and less than 70%),5 (Herbicidal ratio of 90% or more (almost completely withered)),5 (Herbicidal ratio of 90% or more (almost completely withered)),2 (Herbicidal ratio of 20% or more and less than 40%),5 (Herbicidal ratio of 90% or more (almost completely withered)),5 (Herbicidal ratio of 90% or more (almost completely withered)),4 (Herbicidal ratio of 70% or more and less than 90%),4 (Herbicidal ratio of 70% or more and less than 90%),1 (Herbicidal ratio of 5% or more and less than 20%),5 (Herbicidal ratio of 90% or more (almost completely withered)),5 (Herbicidal ratio of 90% or more (almost completely withered)),H: herbicidal effect on Echinochloa crus-galli var. crus-galli [4]: 5 (Herbicidal ratio of 90% or more (almost completely withered)); N: herbicidal effect on Amaranthus retroflexus (Amaranthus retroflexus): 5 (Herbicidal ratio of 90% or more (almost completely withered)); a: transplanted Oryza sativa (effect on crop grade) [5]: 4 (Herbicidal ratio of 70% or more and less than 90%)
